Measurements as given in ChEMBL document CHEMBL5030563, “Structure-Based Design of Dual-Acting Compounds Targeting Adenosine A2A Receptor and Histone Deacetylase as Novel Tumor Immunotherapeutic Agents” (J Med Chem, 2021).
pIC50, pKi: −log10 of the molar value.

What was measured:
[1] = MRT in ICR mouse at 20 mg/kg, po by LC-MS/MS analysis; assay type: ADME, organism-based; settings: in vivo
[2] = AUC (0 to infinity) in ICR mouse at 20 mg/kg, po by LC-MS/MS analysis; assay type: ADME, organism-based; set-up: time infinity, route oral, dose 20 mg/kg; settings: in vivo
[3] = AUC (0 to t) in ICR mouse at 20 mg/kg, po by LC-MS/MS analysis; assay type: ADME, organism-based; set-up: dose 20 mg/kg; settings: in vivo
[4] = Cmax in ICR mouse at 20 mg/kg, po by LC-MS/MS analysis; assay type: ADME, organism-based; set-up: route oral, dose 20 mg/kg; settings: in vivo
[5] = Tmax in ICR mouse at 20 mg/kg, po by LC-MS/MS analysis; assay type: ADME, organism-based; settings: in vivo
[6] = Half life in ICR mouse at 20 mg/kg, po by LC-MS/MS analysis; assay type: ADME, organism-based; settings: in vivo
[7] = Elimination rate constant in ICR mouse at 20 mg/kg, po up to 24 hrs by LC-MS/MS analysis; assay type: ADME, organism-based; settings: in vivo
CT26 = experiment: Antiproliferative activity against mouse CT26 cells measured after 72 hrs by CCK8 assay; assay type: functional; settings: Mus musculus, CT26
MC-38 = experiment: Antiproliferative activity against mouse MC38 cells measured after 72 hrs by CCK8 assay; assay type: functional; settings: Mus musculus, MC-38
Histone deacetylase 1 = Histone deacetylase 1 (Homo sapiens, UniProt Q13547); experiment: Inhibition of HDAC1 (unknown origin) assessed as release of 7-amino-4-methylcoumarin incubated in room temperature for 15 min measured by Spectra max microtitre plate reader
Histone deacetylase 1, sequence (Q13547 whole entry): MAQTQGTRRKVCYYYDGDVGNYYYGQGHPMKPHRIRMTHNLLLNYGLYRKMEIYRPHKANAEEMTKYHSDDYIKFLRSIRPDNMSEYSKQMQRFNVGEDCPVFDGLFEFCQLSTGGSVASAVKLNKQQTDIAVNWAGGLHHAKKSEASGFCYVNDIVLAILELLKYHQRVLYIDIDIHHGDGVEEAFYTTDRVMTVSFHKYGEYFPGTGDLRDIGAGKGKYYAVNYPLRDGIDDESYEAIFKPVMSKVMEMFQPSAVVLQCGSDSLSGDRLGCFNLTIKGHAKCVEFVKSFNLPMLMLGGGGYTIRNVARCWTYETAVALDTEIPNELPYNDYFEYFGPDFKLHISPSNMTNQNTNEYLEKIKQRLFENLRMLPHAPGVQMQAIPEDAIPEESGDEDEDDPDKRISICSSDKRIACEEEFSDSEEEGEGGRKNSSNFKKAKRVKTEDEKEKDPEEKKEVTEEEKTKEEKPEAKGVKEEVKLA

Adenosine receptor A2a = Adenosine receptor A2a (Homo sapiens, UniProt P29274); experiment: Displacement of [3H]SCH58261 from adenosine A2A receptor membrane (unknown origin) measured after 60 mins by scintillation counting analysis; assay type: cell membranes
Adenosine receptor A2a, sequence (P29274 whole entry): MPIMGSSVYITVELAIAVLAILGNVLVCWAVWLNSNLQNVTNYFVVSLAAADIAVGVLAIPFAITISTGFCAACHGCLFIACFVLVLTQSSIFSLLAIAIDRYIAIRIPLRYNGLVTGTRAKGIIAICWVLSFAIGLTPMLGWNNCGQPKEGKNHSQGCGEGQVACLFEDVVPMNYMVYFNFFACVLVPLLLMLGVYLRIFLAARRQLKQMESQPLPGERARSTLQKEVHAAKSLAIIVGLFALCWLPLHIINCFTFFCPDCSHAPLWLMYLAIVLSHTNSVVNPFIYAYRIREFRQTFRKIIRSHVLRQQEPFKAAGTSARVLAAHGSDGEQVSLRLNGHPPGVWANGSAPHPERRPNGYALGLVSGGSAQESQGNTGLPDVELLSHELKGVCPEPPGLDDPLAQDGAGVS

N#Cc1cccc(-c2nc3c4cnn(CCc5ccc(C(=O)Nc6ccccc6N)cc5)c4nc(N)n3n2)c1
MRT [1]: 2.44 h
AUC(0-inf) [2]: 602 ng·h/mL
AUC(0-t) [3]: 588 ng·h/mL
Cmax [4]: 598 ng/mL
Tmax [5]: 15 min
half-life [6]: 245 min
k el at 24 h [7]: 5.67e-05 s⁻¹
GI50 (CT26): 6.9 µM
GI50 (MC-38): 5.4 µM
pIC50 (Histone deacetylase 1): 6.95
pKi (Adenosine receptor A2a): 8.19
